From PubChem BioAssay AID330 (DTP/NCI, 2004)
Values joined by “and” are separate entries in the source; they are usually repeats but may differ in a detail not shown here. Identical values can stand only once. Inconclusive results and toxic doses are left out.

System: P388 leukemia ip, CD2F1 mice, survival T/C
Assay: NCI In Vivo Anticancer Drug Screen. Data for tumor model P388 Leukemia (intraperitoneal) in CD2F1 (CDF1) mice
Conditions: endpoint: median survival time, higher = longer survival
Summary of the method: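 Mice carrying the transplanted tumor received test compound or vehicle. Survival was recorded in each group, and the value is the treated-group measurement divided by that of the vehicle-treated control group.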

[1] = dose: 100.0 mg/kg/injection, schedule: Q04DX003 (ip), vehicle: saline with Tween-80
[2] = dose: 200.0 mg/kg/injection, schedule: Q04DX003 (ip), vehicle: saline with Tween-80
[3] = dose: 400.0 mg/kg/injection, schedule: Q04DX003 (ip), vehicle: saline with Tween-80
[4] = dose: 50.0 mg/kg/injection, schedule: Q01DX009 (ip), vehicle: saline with Tween-80
[5] = dose: 200.0 mg/kg/injection, schedule: Q01DX009 (ip), vehicle: saline with Tween-80
[6] = dose: 50.0 mg/kg/injection, schedule: Q01DX005 (ip), vehicle: Klucel (hydroxypropylcellulose) (HPC)
[7] = dose: 100.0 mg/kg/injection, schedule: Q01DX005 (ip), vehicle: Klucel (hydroxypropylcellulose) (HPC)
[8] = dose: 100.0 mg/kg/injection, schedule: Q01DX009 (ip), vehicle: saline with Tween-80
[9] = dose: 200.0 mg/kg/injection, schedule: Q01DX005 (ip), vehicle: Klucel (hydroxypropylcellulose) (HPC)
[10] = dose: 60.0 mg/kg/injection, schedule: Q01DX005 (ip), vehicle: Klucel (hydroxypropylcellulose) (HPC)
[11] = dose: 120.0 mg/kg/injection, schedule: Q01DX005 (ip), vehicle: Klucel (hydroxypropylcellulose) (HPC)

CC[n+]1c(/C=C/c2ccc(N(CCC(=O)O)CCC(=O)O)cc2C)sc2ccccc21
T/C (dose: 12.5 mg/kg/injection, schedule: Q04DX003 (ip), vehicle: saline with Tween-80): 99 % of control
T/C (dose: 25.0 mg/kg/injection, schedule: Q04DX003 (ip), vehicle: saline with Tween-80): 95 % of control
T/C (dose: 50.0 mg/kg/injection, schedule: Q04DX003 (ip), vehicle: saline with Tween-80): 100 % of control

CN(Cc1cnc2nc(N)nc(N)c2n1)c1c(Cl)cc(C(=O)NC(CCC(=O)O)C(=O)O)cc1Cl (centres undefined)
T/C (dose: 25.0 mg/kg/injection, schedule: Q01DX005 (ip), vehicle: suspension in saline): 158 % of control
T/C (dose: 25.0 mg/kg/injection, schedule: Q01DX005 (iv), vehicle: suspension in saline): 119 % of control
T/C (dose: 50.0 mg/kg/injection, schedule: Q01DX005 (ip), vehicle: suspension in saline): 169 % of control
T/C (dose: 100.0 mg/kg/injection, schedule: Q01DX005 (ip), vehicle: suspension in saline): 178 % of control
T/C (dose: 100.0 mg/kg/injection, schedule: Q01DX005 (iv), vehicle: suspension in saline): 165 % of control
T/C [1]: 195 % of control
T/C (dose: 200.0 mg/kg/injection, schedule: Q01DX005 (ip), vehicle: suspension in saline): 190 % of control
T/C [2]: 222 % of control
T/C (dose: 264.0 mg/kg/injection, schedule: Q04DX003 (ip), vehicle: saline with Tween-80): 245 % of control
T/C [3]: 109 % of control and 240 % of control
T/C (dose: 600.0 mg/kg/injection, schedule: Q04DX003 (ip), vehicle: saline with Tween-80): 259 % of control

CN(CCCCn1cnc2ccccc21)N=O
T/C (dose: 20.0 mg/kg/injection, schedule: Q01DX001 (ip), vehicle: Klucel (hydroxypropylcellulose) (HPC)): 110 % of control
T/C (dose: 40.0 mg/kg/injection, schedule: Q01DX001 (ip), vehicle: Klucel (hydroxypropylcellulose) (HPC)): 102 % of control
T/C (dose: 80.0 mg/kg/injection, schedule: Q01DX001 (ip), vehicle: Klucel (hydroxypropylcellulose) (HPC)): 110 % of control

S=C1Nc2ccccc2C2CC=NN12 (centres undefined)
T/C (dose: 12.5 mg/kg/injection, schedule: Q01DX009 (ip), vehicle: saline with Tween-80): 91 % of control
T/C (dose: 25.0 mg/kg/injection, schedule: Q01DX009 (ip), vehicle: saline with Tween-80): 112 % of control
T/C [4]: 88 % of control and 96 % of control
T/C [5]: 86 % of control

CN=C(N)NN=C(c1ccc(C)cc1)c1ccc(C)cc1
T/C (dose: 12.5 mg/kg/injection, schedule: Q04DX002 (ip), vehicle: saline with Tween-80): 91 % of control
T/C (dose: 25.0 mg/kg/injection, schedule: Q04DX002 (ip), vehicle: saline with Tween-80): 104 % of control
T/C (dose: 100.0 mg/kg/injection, schedule: Q04DX002 (ip), vehicle: saline with Tween-80): 96 % of control
T/C (dose: 200.0 mg/kg/injection, schedule: Q04DX002 (ip), vehicle: saline with Tween-80): 100 % of control

Oc1ccccc1/C=N/NC(=S)NC1CC2C=CC1C2 (centres undefined)
T/C (dose: 12.5 mg/kg/injection, schedule: Q01DX009 (ip), vehicle: olive oil, sesame oil, peanut oil): 100 % of control
T/C (dose: 25.0 mg/kg/injection, schedule: Q01DX009 (ip), vehicle: olive oil, sesame oil, peanut oil): 102 % of control
T/C (dose: 50.0 mg/kg/injection, schedule: Q01DX009 (ip), vehicle: olive oil, sesame oil, peanut oil): 97 % of control
T/C (dose: 100.0 mg/kg/injection, schedule: Q01DX009 (ip), vehicle: olive oil, sesame oil, peanut oil): 97 % of control
T/C (dose: 200.0 mg/kg/injection, schedule: Q01DX009 (ip), vehicle: olive oil, sesame oil, peanut oil): 102 % of control
T/C (dose: 400.0 mg/kg/injection, schedule: Q01DX009 (ip), vehicle: olive oil, sesame oil, peanut oil): 97 % of control

O=C1SC(Nc2cccc([N+](=O)[O-])c2)/C(=N\N=C2/C(Nc3cccc([N+](=O)[O-])c3)SC(=O)N2Cc2ccccc2)N1Cc1ccccc1 (centres undefined)
T/C [6]: 92 % of control
T/C [7]: 87 % of control

COc1ccc(/C=N\O)cc1OC
T/C [1]: 100 % of control
T/C [2]: 100 % of control
T/C [3]: 100 % of control

C[P+]1(C)CCc2c1ccc1ccccc21
T/C [4]: 102 % of control

Cc1ccc(N=C2N=C(Nc3ccc(C)cn3)c3ccccc32)nc1
T/C [4]: 92 % of control
T/C [8]: 91 % of control
T/C [5]: 96 % of control

OC(Cc1ccccc1)c1ccccc1 (centres undefined)
T/C (dose: 31.25 mg/kg/injection, schedule: Q01DX009 (ip), vehicle: saline + Tween-80 + alcohol): 107 % of control
T/C (dose: 62.5 mg/kg/injection, schedule: Q01DX009 (ip), vehicle: saline + Tween-80 + alcohol): 100 % of control
T/C (dose: 100.0 mg/kg/injection, schedule: Q01DX009 (ip), vehicle: suspension in saline): 104 % of control
T/C (dose: 125.0 mg/kg/injection, schedule: Q01DX009 (ip), vehicle: saline + Tween-80 + alcohol): 98 % of control
T/C (dose: 200.0 mg/kg/injection, schedule: Q01DX009 (ip), vehicle: suspension in saline): 98 % of control
T/C (dose: 250.0 mg/kg/injection, schedule: Q01DX009 (ip), vehicle: saline + Tween-80 + alcohol): 102 % of control
T/C (dose: 400.0 mg/kg/injection, schedule: Q01DX009 (ip), vehicle: suspension in saline): 98 % of control

COC(CN(Cc1cccs1)S(=O)(=O)c1ccc(C)cc1)OC
T/C [6]: 94 % of control
T/C [7]: 94 % of control
T/C [9]: 99 % of control

O=S(=O)(Cc1cccs1)c1ncc(Br)cn1
T/C (dose: 12.5 mg/kg/injection, schedule: Q01DX005 (ip), vehicle: Klucel (hydroxypropylcellulose) (HPC)): 106 % of control
T/C (dose: 25.0 mg/kg/injection, schedule: Q01DX005 (ip), vehicle: Klucel (hydroxypropylcellulose) (HPC)): 106 % of control
T/C [6]: 111 % of control and 113 % of control
T/C [7]: 117 % of control

CCOC(=O)/C(=C\c1cccc(OC)c1OC)CC(=O)O
T/C (dose: 25.0 mg/kg/injection, schedule: Q01DX009 (ip), vehicle: other): 102 % of control
T/C (dose: 50.0 mg/kg/injection, schedule: Q01DX009 (ip), vehicle: other): 107 % of control
T/C (dose: 100.0 mg/kg/injection, schedule: Q01DX009 (ip), vehicle: other): 98 % of control
T/C (dose: 200.0 mg/kg/injection, schedule: Q01DX009 (ip), vehicle: other): 112 % of control
T/C (dose: 400.0 mg/kg/injection, schedule: Q01DX009 (ip), vehicle: other): 111 % of control

COc1ccc(/C=C2/C(=O)N(c3ccccc3)N=C2C)cc1
T/C [10]: 107 % of control
T/C [11]: 104 % of control
T/C (dose: 240.0 mg/kg/injection, schedule: Q01DX005 (ip), vehicle: Klucel (hydroxypropylcellulose) (HPC)): 107 % of control

CC(C)(C)SCC(NC(=O)OCC1c2ccccc2-c2ccccc21)C(=O)O (centres undefined)
T/C [6]: 100 % of control
T/C [7]: 100 % of control

CCC(/C=C/c1ccccc1)=N\NC(=O)c1ccc(C)cc1
T/C (dose: 6.25 mg/kg/injection, schedule: Q01DX005 (ip), vehicle: saline with Tween-80): 98 % of control
T/C (dose: 12.5 mg/kg/injection, schedule: Q01DX005 (ip), vehicle: saline with Tween-80): 92 % of control
T/C (dose: 25.0 mg/kg/injection, schedule: Q01DX005 (ip), vehicle: saline with Tween-80): 89 % of control

O=C(OC(C(=O)O)C(OC(=O)c1ccccc1)C(=O)O)c1ccccc1 (centres undefined)
T/C (dose: 50.0 mg/kg/injection, schedule: Q01DX005 (ip), vehicle: saline with Tween-80): 106 % of control
T/C (dose: 100.0 mg/kg/injection, schedule: Q01DX005 (ip), vehicle: saline with Tween-80): 99 % of control
T/C (dose: 200.0 mg/kg/injection, schedule: Q01DX005 (ip), vehicle: saline with Tween-80): 98 % of control

Cc1ccc(S(=O)(=O)/C(=N\O)c2ccc(Cl)cc2)cc1
T/C [6]: 96 % of control
T/C [7]: 107 % of control
T/C [9]: 95 % of control

CC(=O)OC1C2CC(Cl)C1C2 (centres undefined)
T/C [4]: 100 % of control
T/C [8]: 109 % of control
T/C [5]: 105 % of control

O=C1CC(c2ccc([N+](=O)[O-])cc2)O1 (centres undefined)
T/C (dose: 100.0 mg/kg/injection, schedule: Q01DX001 (ip), vehicle: saline): 101 % of control
T/C (dose: 200.0 mg/kg/injection, schedule: Q01DX001 (ip), vehicle: saline): 104 % of control
T/C (dose: 400.0 mg/kg/injection, schedule: Q01DX001 (ip), vehicle: saline): 102 % of control

CC(=NCc1ccccc1)NOCc1ccccc1
T/C (dose: 50.0 mg/kg/injection, schedule: Q01DX005 (ip), vehicle: saline): 114 % of control
T/C (dose: 100.0 mg/kg/injection, schedule: Q01DX005 (ip), vehicle: saline): 108 % of control
T/C (dose: 200.0 mg/kg/injection, schedule: Q01DX005 (ip), vehicle: saline): 101 % of control

O=C1CSC(c2c(F)cccc2Cl)N1c1nncs1 (centres undefined)
T/C [10]: 102 % of control and 104 % of control
T/C [11]: 105 % of control
